# Laboratory results as given in patent US9643957B2, “Heterocyclic compounds having cholesterol 24-hydroxylase activity” (TAKEDA PHARMACEUTICAL COMPANY LIMITED, priority 2012, dated 2017).
# Target: T1, human CH24H (Homo sapiens, UniProt Q9Y6A2)
# T1 construct: Using Full-Length Mammalian Gene Collection No. 4819975 (Invitrogen) as a template; made in house; host or cells: FreeStyle 293-F cells, transient transfection with pcDNA3.1(+)/hCH24H; lysate supernatant, not purified
# Assay: Measurement of CH24H inhibitory activity (24-HC produced from [14C] cholesterol by human CH24H lysate)
# Assay type: biochemical
# Details: 1 μM test compound, [14C] cholesterol 15 μM, 37° C. for 5 hr, read-out: Inhibitory Rate in 1 μM (%)
# Protocol: The expression of human CH24H was performed using FreeStyle 293 Expression System (Invitrogen). […] After transfection, the cells were cultured at 37° C., 8% CO2 with shaking at 125 rpm for 2 days. The cells were collected by centrifugation, and suspended in a suspension buffer (100 mM potassium phosphate (pH 7.4), 0.1 mM EDTA, 1 mM DTT, 20% Glycerol). The suspended product was disrupted by a polytron homogenizer (manufactured by Kinematica), and centrifuged at 9000×g for 10 min, and the supernatant was collected. The collected supernatant was cryopreserved (−80° C.) as a human CH24H lysate standard product.
# For the measurement of CH24H inhibitory activity, using the human CH24H lysate prepared in Experimental Example 2, the amount of 24-HC produced from cholesterol by catalytic activity of CH24H was measured in the presence of a test compound, and compared with that measured in the absence of the test compound. That is, a test compound solution at various concentrations was mixed with a reaction buffer (50 mM potassium phosphate containing 0.1% BSA and Complete, EDTA-free, pH 7.4) and human CH24H lysate. Then, [^14C] cholesterol (53 mCi/mmol specific activity, 15 μM) was added, and CH24H reaction was performed at 37° C. for 5 hr. After completion of the reaction, a quenching solution consisting of chloroform/methanol/distilled water (2:2:1 v/v) was added, and the resulting 24-HC was extracted by shaking. The extract was applied to silica gel thin layer chromatography (ethyl acetate:toluene=4:6), and the obtained ^14C-24HC fraction was measured with BAS2500 (Fujifilm Corporation).
# The inhibitory rate (%) was calculated from the ratio of radioactivity in the presence of a test compound relative to the radioactivity in the absence of the test compound.
# T1 sequence (Q9Y6A2 whole entry): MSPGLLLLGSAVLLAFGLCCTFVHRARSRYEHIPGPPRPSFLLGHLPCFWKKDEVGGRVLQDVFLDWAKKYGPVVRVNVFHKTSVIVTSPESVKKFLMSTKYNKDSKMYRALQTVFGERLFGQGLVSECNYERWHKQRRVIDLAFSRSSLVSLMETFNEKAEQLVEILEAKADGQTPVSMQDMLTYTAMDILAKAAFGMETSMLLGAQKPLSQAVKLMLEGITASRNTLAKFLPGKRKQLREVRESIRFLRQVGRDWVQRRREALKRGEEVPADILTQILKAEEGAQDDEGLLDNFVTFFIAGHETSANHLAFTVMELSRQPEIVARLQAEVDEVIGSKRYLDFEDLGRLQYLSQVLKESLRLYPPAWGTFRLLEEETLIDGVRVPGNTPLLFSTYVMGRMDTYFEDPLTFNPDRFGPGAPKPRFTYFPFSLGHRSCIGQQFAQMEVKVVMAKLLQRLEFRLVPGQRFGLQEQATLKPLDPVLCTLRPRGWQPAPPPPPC
row,Structure (SMILES),inhibition at 1 µM [%]
1,"Cc1cn(-c2ccncc2N2CCC(C(=O)NC3CC3)CC2)nc1C [Example 200, N-cyclopropyl-1-(4-(3,4-dimethyl-1H-pyrazol-1-yl)pyridin-3-yl)piperidine-4-carboxamide]",88
2,"O=C(C1CCN(c2cnccc2-c2ccccn2)CC1)N1CC(F)(F)C1 [Example 213, (1-(2,4′-bipyridin-3′-yl)piperidin-4-yl) (3,3-difluoroazetidin-1-yl)methanone]",93
3,"O=C(C1CCN(c2cnccc2-c2ccccn2)CC1)N1CCC(F)(F)C1 [Example 214, (1-(2,4′-bipyridin-3′-yl)piperidin-4-yl) (3,3-difluoropyrrolidin-1-yl)methanone]",89
4,"CN1CCC2(CCN(c3cncnc3-c3ccc(F)cc3)CC2)C1=O [Example 222, 8-(4-(4-fluorophenyl)pyrimidin-5-yl)-2-methyl-2,8-diazaspiro[4.5]decan-1-one]",92
5,"CN(C(=O)C1CCN(c2cncnc2-c2ccc(F)cc2)CC1)C1CC1 [Example 277, N-cyclopropyl-1-(4-(4-fluorophenyl)pyrimidin-5-yl)-N-methylpiperidine-4-carboxamide]",94
6,"O=C(C1CCN(c2cncnc2-c2ccc(F)cc2)CC1)N1CC(F)C1 [Example 278, (3-fluoroazetidin-1-yl)(1-(4-(4-fluorophenyl)pyrimidin-5-yl)piperidin-4-yl)methanone]",75
7,"Cc1cnn(-c2ccncc2N2CCC(C(=O)N3CC(F)C3)CC2)c1 [Example 280, (3-fluoroazetidin-1-yl)(1-(4-(4-methyl-1H-pyrazol-1-yl)pyridin-3-yl)piperidin-4-yl)methanone]",78
8,"O=C(C1CCN(c2cnccc2-n2cc(Cl)cn2)CC1)N1CC(F)C1 [Example 281, (1-(4-(4-chloro-1H-pyrazol-1-yl)pyridin-3-yl)piperidin-4-yl) (3-fluoroazetidin-1-yl)methanone]",84
9,"Cc1cnn(-c2ccncc2N2CCC(C(=O)N3CC[C@H](F)C3)CC2)c1 [Example 282, ((3S)-3-fluoropyrrolidin-1-yl)(1-(4-(4-methyl-1H-pyrazol-1-yl)pyridin-3-yl)piperidin-4-yl)methanone]",83
10,"Cc1cnn(-c2ccncc2N2CCC(C(=O)N3CC[C@@H](F)C3)CC2)c1 [Example 283, ((3R)-3-fluoropyrrolidin-1-yl)(1-(4-(4-methyl-1H-pyrazol-1-yl)pyridin-3-yl)piperidin-4-yl)methanone]",85
11,"O=C(C1CCN(c2cnccc2-n2cc(Cl)cn2)CC1)N1CC[C@H](F)C1 [Example 284, (1-(4-(4-chloro-1H-pyrazol-1-yl)pyridin-3-yl)piperidin-4-yl)((3S)-3-fluoropyrrolidin-1-yl)methanone]",80
12,"O=C(C1CCN(c2cnccc2-n2cc(Cl)cn2)CC1)N1CC[C@@H](F)C1 [Example 285, (1-(4-(4-chloro-1H-pyrazol-1-yl)pyridin-3-yl)piperidin-4-yl)((3R)-3-fluoropyrrolidin-1-yl)methanone]",82
13,"O=C(C1CCN(c2cncnc2-c2ccc(F)cc2)CC1)N1CC[C@H](F)C1 [Example 286, (1-(4-(4-fluorophenyl)pyrimidin-5-yl)piperidin-4-yl) ((3S)-3-fluoropyrrolidin-1-yl)methanone]",83
14,"O=C(C1CCN(c2cncnc2-c2ccc(F)cc2)CC1)N1CC[C@@H](F)C1 [Example 287, (1-(4-(4-fluorophenyl)pyrimidin-5-yl)piperidin-4-yl)((3R)-3-fluoropyrrolidin-1-yl)methanone]",89
15,"CN(C(=O)C1CCN(c2cncnc2-c2ccc(F)cc2)CC1)C1CCOCC1 [Example 288, 1-(4-(4-fluorophenyl)pyrimidin-5-yl)-N-methyl-N-(tetrahydro-2H-pyran-4-yl)piperidine-4-carboxamide]",84
